Data on one compound can be found in PMC9982066, “Inhibition of Ehrlichia chaffeensis infection by cell-permeable macrocyclic peptides that bind type IV secretion effector Etf-1” (PNAS Nexus, 2023).

One data set relates to THP-1 cells. Kind of data set: CellTiter-Glo luminescent cell viability assay. Conditions: 2-day treatment. In general terms: Cellular ATP, detected with luciferase, serves as a proxy for viable cell number.
A short description of data set [1]: serum stability assay (UPLC). Format: in vitro ADME. Conditions: 25% (v/v) in DPBS; 25% human serum, 37°C, after 22 h; read-out: degradation. The protocol:
In comparison, the linear peptide Tat (cell-permeable peptide of HIV) was completely degraded within the first 120 min of incubation (Fig. 4B).
Human serum was diluted to 25% (v/v) in sterile DPBS and equilibrated at 37°C for 15 min. Peptides were added to the diluted serum to a final concentration of 20 μM and incubated at 37°C with gentle mixing. At designated time points, 30 μL aliquots were withdrawn and mixed with 30 μL of 15% trichloroacetic acid in MeOH (w/v) and 30 μL of MeCN and stored at 4°C overnight to completely precipitate the serum proteins. Next, each aliquot was centrifuged (15,000g, 5 min, 4°C) and 14 μL of the supernatant was injected in an UPLC equipped with an analytical Waters Acquity UPLC BEH C18 column (1.7 μm, 2.1 mm I.D., 100 mm length) and an inline UV-Vis detector and a single quadrupole mass detector. The column was eluted with a linear gradient of 20–50% MeCN in ddH2O containing 0.1% TFA. A UV/Vis detector at 214 nm and the mass spec quantifying the ion counts corresponding to the [M + 3H]^3+ ion of the analytes were used to analyze the samples. The area under the peak of interest was obtained by integration, normalized to that of the peptide at t = 0, and plotted as a function of the incubation time to determine the serum half-life of the peptide.

A further data set has as its target Etf-1 (Ehrlichia chaffeensis, UniProt Q2GG12). Kind of data set: immunofluorescence of native Etf-1 localization in E. chaffeensis-infected RF/6A cells. It counts as cell-based. Conditions: 2 days. The protocol:
Fig. 7. […] RF/6A cells were seeded onto a coverglass in a 12-well plate for 1 h, and infected with E. chaffeensis (Ech) at ∼30 MOI. […] Cells were fixed in 4% PFA and labeled with rabbit anti-Etf-1 IgG and AF488-conjugated goat anti-rabbit secondary antibody in PGS for 1 h each at RT. DAPI was used to label both host-cell nuclei and Ehrlichia DNAs (pseudocolored in green), and E. chaffeensis organisms were shown as green-colored, round to pleomorphic cocci (arrowhead in panel B) that further clustered as spherical morulae. Thin arrows, E. chaffeensis-containing inclusion; open arrows, filamentous-shaped mitochondria. DeltaVision microscope. […] (D) Percentage of E. chaffeensis inclusions colocalized with Etf-1 were quantified by counting ∼20 cells per group from three independent experiments.
For mitochondria localization analysis, RF/6A cells were seeded onto a cover glass in a 12-well plate for 3 h, then infected with E. chaffeensis at ∼30 MOI. […] Host-cell and Ehrlichial DNAs were stained with 300 nM DAPI, and fluorescence with differential interference contrast images were observed and captured with a DeltaVision deconvolution microscope (Applied Precision, Issaquah, WA, USA). Percentages of Etf-1 protein colocalization with macrocyclic peptides or E. chaffeensis inclusions were quantified by counting 10–20 cells per group from three independent experiments.

The test system of another data set is E. chaffeensis. Kind of data set: E. chaffeensis infection of RF/6A cells (numbers and sizes of morulae). Conditions: 10 μM, 2 days. It counts as cell-based, Ehrlichia chaffeensis.
A further data set relates to BECN1 binding to Etf-1. Kind of data set: streptavidin magnetic beads pull-down of BECN1 with biotin-Etf-1, Western blot. It counts as biochemical. Conditions: 10 µM peptide.

Starred links: 1 amine or outer side, 2 acyl side, 3 side chain; linkers in the order of their positions; H or OH if unused. Positions of bridges follow the written chain, without caps; N, C: chain ends. Non-standard residues stand in square brackets, D forms with d. Residues, ends and D or L forms follow the SMILES beside them. Trimesoyl = O=C(c1cc(C(=O)[*:2])cc(C(=O)[*:3])c1)[*:1]; d2Nal = N[C@H](Cc1ccc2ccccc2c1)C(=O)O; Dap = NC[C@H](N)C(=O)O

Chain of Etf-1 (Q2GG12 entry or part of it): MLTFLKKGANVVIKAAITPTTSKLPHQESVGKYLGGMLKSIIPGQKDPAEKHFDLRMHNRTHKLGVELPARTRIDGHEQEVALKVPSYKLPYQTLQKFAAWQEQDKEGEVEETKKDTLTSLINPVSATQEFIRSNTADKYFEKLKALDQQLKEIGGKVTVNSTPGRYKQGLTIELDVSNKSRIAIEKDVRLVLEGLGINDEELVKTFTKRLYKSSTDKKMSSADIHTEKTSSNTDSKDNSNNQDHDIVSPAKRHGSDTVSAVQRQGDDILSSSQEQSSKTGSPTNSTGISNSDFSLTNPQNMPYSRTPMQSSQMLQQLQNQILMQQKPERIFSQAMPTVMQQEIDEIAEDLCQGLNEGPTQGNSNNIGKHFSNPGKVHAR

With `CC(C)C[C@H]1NC(=O)[C@H](CO)NC(=O)[C@H]2CCCN2C(=O)[C@H](CCC(N)=O)NC(=O)[C@H](Cc2c[nH]cn2)NC(=O)[C@H](Cc2ccc(O)cc2)NC(=O)c2cc3cc(c2)C(=O)NC[C@H](NC1=O)C(=O)N[C@@H](Cc1ccccc1)C(=O)N[C@H](Cc1ccc2ccccc2c1)C(=O)N[C@H](CCCNC(=N)N)C(=O)N[C@@H](CCCNC(=N)N)C(=O)N[C@H](CCCNC(=N)N)C(=O)N[C@@H](CCCNC(=N)N)C(=O)N[C@H](C(N)=O)CNC3=O` [Peptide B7, TMA-Tyr-His-Gln-pro-Ser-leu-Dap-Phe-nal-arg-Arg-arg-Arg-Dap] (YHQ[dP]S[dL][Dap]F[d2Nal][dR]R[dR]R[Dap]-NH2; linker N-7-14 via Trimesoyl), the cell viability entry with THP-1 cells (20 μM) is listed as “slightly reduced the cell viability”. For the same compound, in the data set on THP-1 cells (up to 10 μM), the cytotoxicity entry is “no cytotoxicity”. Also, the metabolised at 22 h, 20 µM in data set [1] is under 20%. For the same compound, on Etf-1 (10 μM from 3 h pi), the “localization of Etf-1 to E. chaffeensis inclusions” value is reported as “significantly inhibited the localization”. For the same compound, the “effect on mitochondrial localization of native Etf-1” value at Etf-1 (10 μM) is given as “did not affect”. The “inhibition of E. chaffeensis infection” value in the data set with E. chaffeensis was “significantly inhibited”. The “disruption of BECN1 binding to Etf-1” value in the data set with BECN1 binding to Etf-1 (compared to DMSO control) was “disrupted BECN1 binding to Etf-1”. For the same compound, the “BECN1/Etf-1 Ratio” value in the data set with BECN1 binding to Etf-1 (band intensities, DMSO control set as 1, Fig. 8B) was determined as 0.20.
